# Data taken from article PMC4176160, “Characterization of three mycobacterial DinB (DNA polymerase IV) paralogs highlights DinB2 as naturally adept at ribonucleotide incorporation” (Nucleic Acids Research, 2014).
# Like-named read-outs stand apart in the source and are kept apart here.
# Molecular target: T1, DinB2 (MsmDinB2) (Mycolicibacterium smegmatis, UniProt A0QR77)
# T1 construct: gene dinB; full-length 356 aa, 39 kDa, monomer; expressed in E. coli BL21(DE3) as His10Smt3 fusion, tag removed with Ulp1
# T1 sequence (A0QR77 entry or part of it): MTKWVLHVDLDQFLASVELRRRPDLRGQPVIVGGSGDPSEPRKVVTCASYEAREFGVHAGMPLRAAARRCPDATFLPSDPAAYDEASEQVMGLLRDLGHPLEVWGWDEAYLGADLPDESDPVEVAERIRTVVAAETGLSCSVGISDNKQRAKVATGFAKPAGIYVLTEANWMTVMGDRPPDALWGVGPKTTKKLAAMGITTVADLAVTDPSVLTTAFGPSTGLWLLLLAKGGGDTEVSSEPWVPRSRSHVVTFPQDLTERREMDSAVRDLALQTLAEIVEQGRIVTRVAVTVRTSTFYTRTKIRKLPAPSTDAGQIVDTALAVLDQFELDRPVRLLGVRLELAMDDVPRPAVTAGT
# Experiment: primer extension, kobs of first nucleotide addition vs nucleotide concentration, hyperbolic fit
# Format: biochemical
# Settings: 5 mM MgCl2, 10 mM Tris-HCl pH 7.5, 37 °C, 1 μM enzyme, read-out: apparent Kd
# [1] = 50 nM 13-mer/18-mer DNA primer-template with dT as first template base
# [2] = 50 nM 13-mer/18-mer DNA primer-template with dG as first template base
# [3] = 50 nM 13-mer/18-mer DNA primer-template with dC as first template base
# [4] = 50 nM 13-mer/18-mer DNA primer-template with dA as first template base
smiles,measurement,setting,value
Nc1ncnc2c1ncn2[C@@H]1O[C@H](COP(=O)(O)OP(=O)(O)OP(=O)(O)O)[C@@H](O)[C@H]1O [ATP],Kd,[1],66 µM
Nc1ccn([C@@H]2O[C@H](COP(=O)(O)OP(=O)(O)OP(=O)(O)O)[C@@H](O)[C@H]2O)c(=O)n1 [CTP],Kd,[2],44 µM
Nc1nc2c(ncn2[C@@H]2O[C@H](COP(=O)(O)OP(=O)(O)OP(=O)(O)O)[C@@H](O)[C@H]2O)c(=O)[nH]1 [GTP],Kd,[3],22 µM
O=c1ccn([C@@H]2O[C@H](COP(=O)(O)OP(=O)(O)OP(=O)(O)O)[C@@H](O)[C@H]2O)c(=O)[nH]1 [UTP],Kd,[4],411 µM
Nc1ncnc2c1ncn2[C@H]1C[C@H](O)[C@@H](COP(=O)(O)OP(=O)(O)OP(=O)(O)O)O1 [dATP],Kd,[1],0.85 µM
Nc1ccn([C@H]2C[C@H](O)[C@@H](COP(=O)(O)OP(=O)(O)OP(=O)(O)O)O2)c(=O)n1 [dCTP],Kd,[2],1.5 µM
Nc1nc2c(ncn2[C@H]2C[C@H](O)[C@@H](COP(=O)(O)OP(=O)(O)OP(=O)(O)O)O2)c(=O)[nH]1 [dGTP],Kd,[3],0.87 µM
Cc1cn([C@H]2C[C@H](O)[C@@H](COP(=O)(O)OP(=O)(O)OP(=O)(O)O)O2)c(=O)[nH]c1=O [dTTP],Kd,[4],8 µM
